{"source": "patent US20230312587A1", "about": "“PTERIDINONE COMPOUNDS AND USES THEREOF” (Vertex Pharmaceutical Incorporated, priority 2018, published 2023)", "key": {"[1]": {"tested_on": "ER stress marker proteins XBP1(s) and ATF4", "assay": "ER stress marker immunoblot in parental HepG2 vs WFS1 KO cells", "format": "cell-based", "details": "6 hours, immunoblotting", "source_text": "(§1) In contrast WFS1 depletion had no effect on thapsigargin induced changes in global gene expression (FIG. 7.)"}, "[2]": {"tested_on": "global gene expression in HepG2 cells", "assay": "Global gene expression changes in HepG2 vs WFS1 depleted cells", "format": "cell-based", "details": "HepG2, 6 hours of exposure", "source_text": "as §1"}, "[3]": {"tested_on": "tumor xenografts derived from multiple cancer types", "assay": "In vivo efficacy of Compound 136 in various tumor xenografts", "set-up": "species or system SCID or nude mice; key to tumor response (regression class): CR: complete regression (majority response on treatment is that tumors become undetectable); PR: partial regression (majority response on treatment is that tumors shrink by at least 330%)", "description": "Female immune deficient mice (Charles River, 4-6 wks age) were anesthetized with Ketamine-Xylazine (140 mg/kg-14 mg/kg ip) and shaved. Puralube eye ointment was applied to the eyes to prevent desiccation of the corneas. Betadine and 70% ethanol was applied to the shaved location to sterilize the skin at the location of the incision. The animals were placed in a biosafety cabinet for the duration of the surgery. Using scissors, an 8 to 10 mm incision was made in the lateral flank of the skin. A tumor fragment weighing between 50 and 150 mg was placed under the skin at the incision site using forceps, and staples were used to close the incision. The staples were removed 5 to 7 days after surgery. Starting approximately two weeks after implantation, animals were weighed, and tumors were measured using caliper twice weekly. Tumor volume was calculated using the formula: volume=length×width^2×0.52.\nCompound administration began when xenografts reached approximately 100-300 mm3 and continued until control xenografts reached […] of the animal's body weight. Test compounds were administered orally by gastric gavage. Percent tumor growth inhibition (TG) was calculated on the indicated treatment day. Percent TGI is defined as: [1−(del T/del C)]×100%, where del T is the final minus initial average volumes of the treated group, and del C is the final minus initial average volumes of the control group. […] The tested compounds were administered orally. Vehicle control consisted of either 0.5% methylcellulose/0.1% sodium lauryl sulfate or 20% captisol. Tumor volumes were determined by caliper measurement twice a week.\nTumors were engrafted in either SCID or nude mice. Compound 136 was administered orally once a day (QD) at 100 mg/kg. Vehicle control consisted of 0.5 methylcellulose/0.10% sodium lauryl sulfate. Tumor volumes were determined by caliper measurement twice a week. TG tumor growth inhibition at end of treatment. CR: complete regression (majority response on treatment is that tumors become undetectable), PR: partial regression (majority response on treatment is that tumors shrink by at least […])."}, "[4]": {"details": "Bladder BXF 1036, 100 mg/kg QD oral, 21 days"}, "[5]": {"details": "Kidney RXF 631, 100 mg/kg QD oral, 21 days"}, "[6]": {"details": "Melanoma MEXF 1765, 100 mg/kg QD oral, 21 days"}, "[7]": {"details": "Multiple myeloma NCI-H929, 100 mg/kg QD oral, 21 days"}, "[8]": {"details": "Multiple myeloma OPM2, 100 mg/kg QD oral, 21 days"}, "[9]": {"details": "Non-small cell lung LXFL 529, 100 mg/kg QD oral, 21 days"}, "[10]": {"details": "Non-small cell lung LXFL 625, 100 mg/kg QD oral, 21 days"}, "[11]": {"details": "Non-small cell lung LXFL 2207, 100 mg/kg QD oral, 21 days"}, "[12]": {"details": "Non-small cell lung OD26749, 100 mg/kg QD oral, 21 days"}, "[13]": {"details": "Non-small cell lung OD33966, 100 mg/kg QD oral, 21 days"}}}
{"compound": "Cc1nc(NCc2cnn(Cc3ccc(C(F)(F)F)nc3)c2)nc2c1NC(=O)[C@H](C)N2C", "note": "[Compound 136, (7S)-4,7,8-trimethyl-2-(((1-((6-(trifluoromethyl)pyridin-3-yl)methyl)-111-pyrazol-4-yl)methyl)amino)-7,8-dihydropteridin-6(5H)-one]", "values": [{"measurement": "effect of WFS1 depletion on induction of XBP1(s) and ATF4", "setting": "[1]", "value": "prevents the induction"}, {"measurement": "effect of WFS1 depletion on changes in global gene expression", "setting": "[2]", "value": "prevented Compound 136 from causing changes"}, {"measurement": "% TGI", "setting": "[3]; [4]", "value": "> 100", "unit": "%"}, {"measurement": "Body weight change at end of treatment", "setting": "[3]; [4]", "value": "+5.5%"}, {"measurement": "tumor response (regression class)", "setting": "[3]; [4]", "value": "PR"}, {"measurement": "% TGI", "setting": "[3]; Breast DU4475, 100 mg/kg QD oral, 14 days", "value": 99, "unit": "%"}, {"measurement": "% TGI", "setting": "[3]; [5]", "value": 89, "unit": "%"}, {"measurement": "Body weight change at end of treatment", "setting": "[3]; [5]", "value": "+6.2%"}, {"measurement": "% TGI", "setting": "[3]; [6]", "value": "> 100", "unit": "%"}, {"measurement": "Body weight change at end of treatment", "setting": "[3]; [6]", "value": "+9.8%"}, {"measurement": "tumor response (regression class)", "setting": "[3]; [6]", "value": "CR"}, {"measurement": "% TGI", "setting": "[3]; [7]", "value": "> 100", "unit": "%"}, {"measurement": "Body weight change at end of treatment", "setting": "[3]; [7]", "value": "+1.8%"}, {"measurement": "tumor response (regression class)", "setting": "[3]; [7]", "value": "CR"}, {"measurement": "% TGI", "setting": "[3]; [8]", "value": "> 100", "unit": "%"}, {"measurement": "Body weight change at end of treatment", "setting": "[3]; [8]", "value": "−0.9", "unit": "%"}, {"measurement": "tumor response (regression class)", "setting": "[3]; [8]", "value": "CR"}, {"measurement": "% TGI", "setting": "[3]; [9]", "value": "> 100", "unit": "%"}, {"measurement": "Body weight change at end of treatment", "setting": "[3]; [9]", "value": "+5.5%"}, {"measurement": "tumor response (regression class)", "setting": "[3]; [9]", "value": "CR"}, {"measurement": "% TGI", "setting": "[3]; [10]", "value": "> 100", "unit": "%"}, {"measurement": "Body weight change at end of treatment", "setting": "[3]; [10]", "value": "+3.7%"}, {"measurement": "tumor response (regression class)", "setting": "[3]; [10]", "value": "CR"}, {"measurement": "% TGI", "setting": "[3]; [11]", "value": "> 100", "unit": "%"}, {"measurement": "Body weight change at end of treatment", "setting": "[3]; [11]", "value": "+1.5%"}, {"measurement": "tumor response (regression class)", "setting": "[3]; [11]", "value": "PR"}, {"measurement": "% TGI", "setting": "[3]; [12]", "value": "> 100", "unit": "%"}, {"measurement": "Body weight change at end of treatment", "setting": "[3]; [12]", "value": "−0.1", "unit": "%"}, {"measurement": "tumor response (regression class)", "setting": "[3]; [12]", "value": "CR"}, {"measurement": "% TGI", "setting": "[3]; [13]", "value": "> 100", "unit": "%"}, {"measurement": "Body weight change at end of treatment", "setting": "[3]; [13]", "value": "+4.5%"}, {"measurement": "tumor response (regression class)", "setting": "[3]; [13]", "value": "PR"}, {"measurement": "growth of tumor xenografts", "setting": "[3]; orally once a day (QD) at 100 mg/kg, SCID or nude mice", "value": "inhibits growth of tumor xenografts derived from multiple cancer types"}]}
